Laboratory results as given in patent US20180371018A1, “POLYPEPTIDE COMPOUND, PREPARATION METHOD THEREFOR AND USE THEREOF” (priority 2015, published 2018).

How the values were obtained:
[1] = system: Hepatoma 22 (H22) solid tumors; experiment: Inhibition of Hepatoma 22 (H22) solid tumors in mice, five-copy peptides; type: in vivo, Mus Musculus Balb/c female mice; settings: positive medicine, 20 mg/kg, intraperitoneal injection, 1 time/day, 5 days
[2] = system: Hepatoma 22 (H22) solid tumors; experiment: Inhibition of Hepatoma 22 (H22) solid tumors in mice, peptides with different number of copies; type: in vivo, Mus Musculus Balb/c female mice; settings: positive medicine, 20 mg/kg, intraperitoneal injection, 1 time/day, 5 days

O=c1[nH]cc(F)c(=O)[nH]1 [Peptide 5-FU, 5-fluorouracil]
Average tumor weight [1]: 1.135 ± 0.248 g
Tumor inhibition rate (%) [1]: 51.62%
Tumor inhibition rate (%) [2]: 51.62%
Tumor weight [2]: 1.135 ± 0.248 g
